From ChEMBL document CHEMBL5634161, “Discovery of benzamide-based PI3K/HDAC dual inhibitors with marked pro-apoptosis activity in lymphoma cells” (Eur J Med Chem, 2023) come the findings set out here.

One assay has as its target Histone deacetylase 3 (Homo sapiens, UniProt O15379). As to the kind of experiment: Inhibition of HDAC3 (unknown origin) using Boc-Lys(acetyl)-AMC as substrate preincubated for 1 hrs followed by substrate addition and measured after 2 hrs by spectrophotometer based fluorometric assay.
Another assay deals with Histone deacetylase 8 (Homo sapiens, UniProt Q9BY41). Briefly: Inhibition of HDAC8 (unknown origin) using Boc-Lys(acetyl)-AMC as substrate preincubated for 1 hrs followed by substrate addition and measured after 2 hrs by spectrophotometer based fluorometric assay.
Histone deacetylase 8, sequence (Q9BY41 whole entry): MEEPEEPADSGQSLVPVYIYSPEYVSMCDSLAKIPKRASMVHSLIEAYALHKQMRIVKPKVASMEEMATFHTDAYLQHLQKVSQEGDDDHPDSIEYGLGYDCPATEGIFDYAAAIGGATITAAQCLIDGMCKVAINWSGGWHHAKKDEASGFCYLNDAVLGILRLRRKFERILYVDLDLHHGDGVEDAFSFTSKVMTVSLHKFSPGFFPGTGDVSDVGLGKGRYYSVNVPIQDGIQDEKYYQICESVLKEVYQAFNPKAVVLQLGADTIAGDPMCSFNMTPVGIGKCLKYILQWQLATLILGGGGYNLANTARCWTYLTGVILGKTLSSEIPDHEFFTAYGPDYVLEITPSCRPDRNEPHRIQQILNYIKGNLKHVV
The subject of a further assay is JeKo-1. As to the kind of experiment: Antiproliferative activity against human JeKo-1 cells incubated for 48 hrs by resazurin dye based fluorescence micro plate reader analysis. In kind it is functional, cell-based. To be noted: JeKo-1, 48 h. (Alamar Blue is a resazurin reagent that responds to reducing activity.)

Bounds are passed on as bounds.

For orientation: IC50 means the point on the concentration scale where inhibition reaches its midpoint. Read a high IC50 as lower potency.

Histone deacetylase 3, sequence (O15379 whole entry): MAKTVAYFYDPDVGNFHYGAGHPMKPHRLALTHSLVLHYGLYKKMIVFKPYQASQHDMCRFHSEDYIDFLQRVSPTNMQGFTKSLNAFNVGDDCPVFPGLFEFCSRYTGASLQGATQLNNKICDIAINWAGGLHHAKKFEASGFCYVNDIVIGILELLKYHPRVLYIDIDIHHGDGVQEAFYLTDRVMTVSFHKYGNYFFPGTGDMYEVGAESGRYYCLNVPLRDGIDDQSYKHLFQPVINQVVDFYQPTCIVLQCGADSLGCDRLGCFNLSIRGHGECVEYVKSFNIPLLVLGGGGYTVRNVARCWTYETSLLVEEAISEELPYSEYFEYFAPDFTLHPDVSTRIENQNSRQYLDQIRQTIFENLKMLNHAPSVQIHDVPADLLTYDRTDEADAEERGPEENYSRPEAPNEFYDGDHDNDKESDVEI

Regarding `COc1nc(-c2ccc(NC(=O)Nc3ccc(C(=O)NCCCCCC(=O)Nc4ccccc4N)cc3)cc2)nc(N2CCOCC2)n1`, the figures for the IC50 against Histone deacetylase 3, against Histone deacetylase 8 and in the assay on JeKo-1 were 24.5 nM, over 10000 nM and 500 nM, respectively.
